According to PMC11597725, “New Asymmetric Gemini Triazole Surfactants with a Polar Triethylene Glycol Fragment: Synthesis and Physico-Chemical Properties” (Molecules, 2024):

Target: T1, bovine serum albumin (BSA) (Bos taurus, UniProt P02769)
T1 construct: gene ALB; native serum protein, BSA powder dissolved in buffer; mature form expected
Experiment: tryptophan fluorescence quenching, double-log plot
Assay type: binding
Settings: 25 mM Tris-HCl pH 7.4, 298.15 K, BSA 10 μM, surfactant 0-700 μM
Source text: tryptophan fluorescence quenching, double-log plot on bovine serum albumin (BSA)

T1 sequence (P02769 25-607): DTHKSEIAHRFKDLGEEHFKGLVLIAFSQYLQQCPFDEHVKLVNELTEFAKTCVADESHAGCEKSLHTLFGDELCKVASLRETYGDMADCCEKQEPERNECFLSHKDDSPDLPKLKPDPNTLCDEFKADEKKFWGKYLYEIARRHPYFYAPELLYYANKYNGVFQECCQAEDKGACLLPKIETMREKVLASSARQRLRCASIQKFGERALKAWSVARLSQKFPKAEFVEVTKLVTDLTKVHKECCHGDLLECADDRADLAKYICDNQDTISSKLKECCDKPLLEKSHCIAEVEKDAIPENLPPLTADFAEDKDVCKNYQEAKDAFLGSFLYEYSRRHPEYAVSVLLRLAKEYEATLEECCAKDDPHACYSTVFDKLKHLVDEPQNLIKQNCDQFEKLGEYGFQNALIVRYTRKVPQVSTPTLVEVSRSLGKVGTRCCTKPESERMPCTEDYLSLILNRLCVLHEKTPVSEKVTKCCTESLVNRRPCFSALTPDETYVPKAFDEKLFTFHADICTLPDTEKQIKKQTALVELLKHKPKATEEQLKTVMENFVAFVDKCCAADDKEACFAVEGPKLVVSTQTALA

SMILES | Kb [M⁻¹]
CCCCCCCCCCCCCCn1cc[n+](CCC[n+]2ccn(CCCn3cc(COCCOCCOCCOC)nn3)c2)c1 [14c, 1-(3-(4-(2,5,8,11-tetraoxadodecyl)-1H-1,2,3-triazol-1-yl)propyl)-3-(3-(1-tetradecyl-1H-imidazol-3-ium-3-yl)propyl)-1H-imidazol-3-ium dibromide] | 44900
CCCCn1cc[n+](CCCn2cc[n+](CCCn3cc(COCCOCCOCCOC)nn3)c2)c1 [14a, 1-(3-(4-(2,5,8,11-tetraoxadodecyl)-1H-1,2,3-triazol-1-yl)propyl)-3-(3-(1-butyl-1H-imidazol-3-ium-3-yl)propyl)-1H-imidazol-3-ium dibromide] | 730
CCCCCCCCn1cc[n+](CCCn2cc[n+](CCCn3cc(COCCOCCOCCOC)nn3)c2)c1 [14b, 1-(3-(4-(2,5,8,11-tetraoxadodecyl)-1H-1,2,3-triazol-1-yl)propyl)-3-(3-(1-octyl-1H-imidazol-3-ium-3-yl)propyl)-1H-imidazol-3-ium dibromide] | 20700
COCCOCCOCCOCc1cn(CCCn2cc[n+](CCC[n+]3ccn(CCCn4cc(COCCOCCOCCOC)nn4)c3)c2)nn1 [14d, 3,3′-(propane-1,3-diyl)bis(1-(3-(4-(2,5,8,11-tetraoxadodecyl)-1H-1,2,3-triazol-1-yl)propyl)-1H-imidazol-3-ium) dibromide] | 34800

Now from value to molecule:

Kb [M⁻¹] | SMILES
790 | CCCCn1cc[n+](CCC[n+]2ccn(CCOCCn3cc(COCCOCCOCCOC)nn3)c2)c1 [15a, 1-(2-(2-(4-(2,5,8,11-tetraoxadodecyl)-1H-1,2,3-triazol-1-yl)ethoxy)ethyl)-3-(3-(1-butyl-1H-imidazol-3-ium-3-yl)propyl)-1H-imidazol-3-ium dibromide]
10000 | COCCOCCOCCOCc1cn(CCOCCn2cc[n+](CCC[n+]3ccn(CCOCCn4cc(COCCOCCOCCOC)nn4)c3)c2)nn1 [15d, 3,3′-(propane-1,3-diyl)bis(1-(2-(2-(4-(2,5,8,11-tetraoxadodecyl)-1H-1,2,3-triazol-1-yl)ethoxy)ethyl)-1H-imidazol-3-ium) dibromide]
10900 | CCCCCCCCCCCCCCn1cc[n+](CCC[n+]2ccn(CCOCCn3cc(COCCOCCOCCOC)nn3)c2)c1 [15c, 1-(2-(2-(4-(2,5,8,11-tetraoxadodecyl)-1H-1,2,3-triazol-1-yl)ethoxy)ethyl)-3-(3-(1-tetradecyl-1H-imidazol-3-ium-3-yl)propyl)-1H-imidazol-3-ium dibromide]
10400 | CCCCCCCCn1cc[n+](CCC[n+]2ccn(CCOCCn3cc(COCCOCCOCCOC)nn3)c2)c1 [15b, 1-(2-(2-(4-(2,5,8,11-tetraoxadodecyl)-1H-1,2,3-triazol-1-yl)ethoxy)ethyl)-3-(3-(1-octyl-1H-imidazol-3-ium-3-yl)propyl)-1H-imidazol-3-ium dibromide]
